Experimental data: US8722849B2, “Polypeptides” (Novo Nordisk A/S, priority 2011, dated 2014)
Values after ≈ are worked out from the molar mass of the structure shown. Where two headings read alike, the source gives them in different places. Starred links: 1 amine or outer side, 2 acyl side, 3 side chain; linkers in the order of their positions; H or OH if unused. Positions of bridges follow the written chain, without caps; N, C: chain ends. Residues, ends and D or L forms follow the SMILES beside them. *: point of attachment. C20 diacid = O=C(O)CCCCCCCCCCCCCCCCCCC(=O)*; C18 diacid = O=C(O)CCCCCCCCCCCCCCCCC(=O)*; γGlu = O=C(O)[C@H](CCC(=O)[*:2])N[*:1]

Columns and labels:
[1] = biological target: T1, human amylin receptor (amylin 3(a) receptor: human calcitonin receptor + RAMP-3) (Homo sapiens, UniProt O60896+P30988); experiment: Assay (II)a functional CRE-luciferase assay, human amylin receptor; assay type: cell-based; details: Table 2; BHK amylin 3(a)-receptor/CRE-luc cells
T1 construct: expressed in transfected cells; host or cells: BHK570
T1 sequence (P30988 25-474): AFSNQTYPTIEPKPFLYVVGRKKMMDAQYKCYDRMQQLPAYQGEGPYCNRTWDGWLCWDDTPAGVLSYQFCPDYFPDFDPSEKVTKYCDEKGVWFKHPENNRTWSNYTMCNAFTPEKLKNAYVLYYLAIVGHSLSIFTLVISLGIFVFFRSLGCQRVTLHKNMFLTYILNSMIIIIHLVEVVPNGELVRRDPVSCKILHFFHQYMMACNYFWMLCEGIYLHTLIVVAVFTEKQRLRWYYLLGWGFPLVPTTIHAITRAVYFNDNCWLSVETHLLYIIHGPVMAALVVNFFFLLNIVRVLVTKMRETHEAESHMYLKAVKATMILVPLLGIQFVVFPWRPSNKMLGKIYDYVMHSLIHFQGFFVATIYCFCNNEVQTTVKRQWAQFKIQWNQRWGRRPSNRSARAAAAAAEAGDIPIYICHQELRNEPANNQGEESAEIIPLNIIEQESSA
T1 sequence (O60896 24-148 partner): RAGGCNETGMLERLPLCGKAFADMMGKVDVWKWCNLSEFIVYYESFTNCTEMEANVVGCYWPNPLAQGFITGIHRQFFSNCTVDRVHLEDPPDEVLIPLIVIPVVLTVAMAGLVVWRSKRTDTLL

[2] = biological target: T2, human calcitonin receptor (Homo sapiens, UniProt P30988); experiment: Assay (II)a functional CRE-luciferase assay, human calcitonin receptor; assay type: cell-based; details: Table 7; human calcitonin (CTa) receptor
T2 construct: expressed in transfected cells; host or cells: BHK570
T2 sequence (P30988 25-474): T1 sequence (P30988 25-474)

[3] = Assay (III) ThT fibrillation assay for physical stability; assay type: physicochemical
Summary of the method: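 Freshly prepared formulations, pH-adjusted, with 1 μM ThT; four or eight replicates incubated at 37 °C under 960 rpm orbital shaking. Fluorescence (ex 444/em 485 nm) read every 20 min; […]. Peptide concentration measured by RP-HPLC before and after the run.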

[4] = Assay (IV) determination of solubility; assay type: physicochemical
Summary of the method: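 Eight 100 mM buffers (glycylglycine pH 3.0–5.0, bistrispropane pH 6.0–8.0) each received an equal volume of polypeptide dissolved in water at ~500 nmol/ml. Soluble polypeptide was measured by HPLC following 18 hours at room temperature and centrifugation.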

[5] = bistrispropane buffer, pH 6, pH 6.0, read-out: Solubility pH 6.0
[6] = bistrispropane buffer, pH 6.5, pH 6.5, read-out: Solubility pH 6.5
[7] = bistrispropane buffer, pH 7, pH 7.0, 18 hours at room temperature, Table 3, read-out: Solubility pH 7.0
[8] = bistrispropane buffer, pH 7, pH 7.0, read-out: Solubility pH 7.0
[9] = bistrispropane buffer, pH 7.5, pH 7.5, read-out: Solubility pH 7.5
[10] = bistrispropane buffer, pH 8, pH 8.0, read-out: Solubility pH 8.0
[11] = glycylglycine buffer, pH 3, pH 3.0, read-out: Solubility pH 3.0
[12] = glycylglycine buffer, pH 4, pH 4.0, 18 hours at room temperature, Table 2, read-out: Solubility pH 4.0
[13] = glycylglycine buffer, pH 4, pH 4.0, read-out: Solubility pH 4.0
[14] = glycylglycine buffer, pH 5, pH 5.0, read-out: Solubility pH 5.0

SMILES | EC50 [1] [nM] | EC50 [2] [nM] | ThT pH 4.0 lag time ([3]; Table 8) [h] | ThT pH 4.0 lag time ([3]; ThT fibrillation assay) [h] | ThT pH 4.0 lag time (h) ([3]; ThT fibrillation assay) | solubility at 18 h [4, 5] [µM] | solubility at 18 h [4, 6] [µM] | solubility at 18 h [4, 7] [µM] | solubility at 18 h ([4]; bistrispropane buffer, pH 7, pH 7.0, Table 8, read-out: Solubility pH 7.0) [µM] | solubility at 18 h [4, 8] [µM] | solubility at 18 h [4, 9] [µM] | solubility at 18 h [4, 10] [µM] | solubility at 18 h [4, 11] [µM] | solubility at 18 h [4, 12] [µM] | solubility at 18 h [4, 13] [µM] | solubility at 18 h [4, 14] [µM]
CC[C@H](C)[C@H](NC(=O)[C@@H]1CCCN1C(=O)CNC(=O)[C@H](Cc1ccccc1)NC(=O)[C@H](CC(N)=O)NC(=O)[C@H](CC(N)=O)NC(=O)[C@H](CO)NC(=O)[C@H](CO)NC(=O)[C@H](Cc1c[nH]cn1)NC(=O)[C@H](CCCNC(=N)N)NC(=O)[C@H](CC(C)C)NC(=O)[C@H](Cc1ccccc1)NC(=O)[C@H](CCC(=O)O)NC(=O)[C@H](C)NC(=O)[C@H](CC(C)C)NC(=O)[C@H](CCCNC(=N)N)NC(=O)[C@H](CCC(N)=O)NC(=O)[C@@H](NC(=O)[C@H](C)NC(=O)[C@@H]1CSSC[C@H](NC(=O)[C@H](CCCCN)NC(=O)CC[C@H](NC(=O)CCCCCCCCCCCCCCCCC(=O)O)C(=O)O)C(=O)N[C@@H](CC(N)=O)C(=O)N[C@@H]([C@@H](C)O)C(=O)N[C@@H](C)C(=O)N[C@@H]([C@@H](C)O)C(=O)N1)[C@@H](C)O)C(=O)N[C@@H](CC(C)C)C(=O)N1CCC[C@H]1C(=O)N1CCC[C@H]1C(=O)N[C@H](C(=O)N[C@@H](CC(N)=O)C(=O)N[C@H](C(=O)NCC(=O)N[C@@H](CO)C(=O)N[C@@H](CC(N)=O)C(=O)N[C@H](C(=O)N[C@@H](Cc1ccc(O)cc1)C(N)=O)[C@@H](C)O)C(C)C)[C@@H](C)O [Example 51, N-alpha-[(S)-4-Carboxy-4-(17-carboxyheptadecanoylamino)butyryl]-[Glu14,Arg17]-pramlintide] ({C18 diacid-γGlu}-KCNTATCATQRLAEFLRHSSNNFGPILPPTNVGSNTY-NH2; disulfide 2-7 (inferred); C-terminus assumed) | 0.061 | 0.6 | 28.7 | 28.7 | 28.7 | > 200 | > 200 | > 200 | > 200 | > 200 | > 200 | > 200 | > 200 | > 200 | > 200 | > 200
CC[C@H](C)[C@H](NC(=O)[C@@H]1CCCN1C(=O)CNC(=O)[C@H](Cc1ccccc1)NC(=O)[C@H](CC(N)=O)NC(=O)[C@H](CC(N)=O)NC(=O)[C@H](CO)NC(=O)[C@H](CO)NC(=O)[C@H](Cc1c[nH]cn1)NC(=O)[C@H](Cc1c[nH]cn1)NC(=O)[C@H](CC(C)C)NC(=O)[C@H](Cc1ccccc1)NC(=O)[C@H](CCC(=O)O)NC(=O)[C@H](C)NC(=O)[C@H](CC(C)C)NC(=O)[C@H](CCCNC(=N)N)NC(=O)[C@H](CCC(=O)O)NC(=O)[C@@H](NC(=O)[C@H](C)NC(=O)[C@@H]1CSSC[C@H](NC(=O)[C@H](CCCCN)NC(=O)CC[C@H](NC(=O)CCCCCCCCCCCCCCCCCCC(=O)O)C(=O)O)C(=O)N[C@@H](CC(N)=O)C(=O)N[C@@H]([C@@H](C)O)C(=O)N[C@@H](C)C(=O)N[C@@H]([C@@H](C)O)C(=O)N1)[C@@H](C)O)C(=O)N[C@@H](CC(C)C)C(=O)N1CCC[C@H]1C(=O)N1CCC[C@H]1C(=O)N[C@H](C(=O)N[C@@H](CC(N)=O)C(=O)N[C@H](C(=O)NCC(=O)N[C@@H](CO)C(=O)N[C@@H](CC(N)=O)C(=O)N[C@H](C(=O)N[C@@H](Cc1ccc(O)cc1)C(N)=O)[C@@H](C)O)C(C)C)[C@@H](C)O [Example 54, N-alpha-[(S)-4-Carboxy-4-(19-carboxynonadecanoylamino)butyryl]-[Glu10,Glu14,His17]-pramlintide] ({C20 diacid-γGlu}-KCNTATCATERLAEFLHHSSNNFGPILPPTNVGSNTY-NH2; disulfide 2-7 (inferred)) | 0.13 | 0.199 | – | – | 23 | 100 (≈ 446 µg/mL) | 150 (≈ 669 µg/mL) | > 200 | – | > 200 | > 200 | > 200 | > 200 | > 200 | > 200 | > 200
